# Laboratory results from ChEMBL document CHEMBL3576867, “Cytotoxic activity of rearranged drimane meroterpenoids against colon cancer cells via down-regulation of β-catenin expression” (J Nat Prod, 2015).
# The source made the active and inactive calls. No cut-off for these calls is given here.
# How the values were obtained:
# HEK293 [1] = assay: Inhibition of Wnt/beta-catenin pathway in HEK293 cells assessed as decrease in Wnt3a-CM-induced beta-catenin response regulated transcription level at 10 to 40 uM after 15 hrs by TOPflash reporter gene assay; assay type: cell-based; settings: Homo sapiens
# HEK293 [2] = assay: Inhibition of Wnt/beta-catenin pathway in HEK293 cells assessed as downregulation of Wnt3a-CM-activated beta-catenin expression at 10 to 40 uM after 15 hrs by Western blot analysis; assay type: cell-based; settings: Homo sapiens
# SW480 [3] = assay: Cytotoxicity against human SW480 cells assessed as growth inhibition at >20 uM after 48 hrs by Cell-Titer-Glo assay; assay type: functional, cell-based
# HCT-116 [4] = assay: Cytotoxicity against human HCT116 cells assessed as growth inhibition at >20 uM after 48 hrs by Cell-Titer-Glo assay; assay type: functional, cell-based
# HEK293 [5] = assay: Inhibition of Wnt/beta-catenin pathway in HEK293 cells assessed as decrease in Wnt3a-CM-induced beta-catenin response regulated transcription level at 1.5 to 6 uM after 15 hrs by TOPflash reporter gene assay; assay type: cell-based; settings: Homo sapiens
# HEK293 [6] = assay: Inhibition of Wnt/beta-catenin pathway in HEK293 cells assessed as downregulation of Wnt3a-CM-activated beta-catenin expression at 10 to 40 uM after 15 hrs by Western blot analysis in presence of 5-epi-nakijinone; assay type: cell-based; settings: Homo sapiens
# SW480 [7] = assay: Cytotoxicity against human SW480 cells assessed as growth inhibition after 48 hrs by Cell-Titer-Glo assay; assay type: functional, cell-based; settings: SW480, 48 h
# HCT-116 [8] = assay: Cytotoxicity against human HCT116 cells assessed as growth inhibition after 48 hrs by Cell-Titer-Glo assay; assay type: functional, cell-based; settings: HCT-116, 48 h
# HEK293 [9] = assay: Inhibition of Wnt/beta-catenin pathway in HEK293 cells assessed as decrease in Wnt3a-CM-induced beta-catenin response regulated transcription level at 10 to 40 uM after 15 hrs by TOPflash reporter gene assay in presence of 5-epi-nakijinone; assay type: cell-based; settings: Homo sapiens
# HEK293 [10] = assay: Inhibition of Wnt/beta-catenin pathway in HEK293 cells assessed as downregulation of Wnt3a-CM-activated beta-catenin expression at 1.5 to 6 uM after 15 hrs by Western blot analysis; assay type: cell-based; settings: Homo sapiens
# SW480 [11] = assay: Cytotoxicity against human SW480 cells assessed as growth inhibition at >20 uM after 48 hrs by Cell-Titer-Glo assay in presence of 5-epi-nakijinone; assay type: functional, cell-based
# HCT-116 [12] = assay: Cytotoxicity against human HCT116 cells assessed as growth inhibition at >20 uM after 48 hrs by Cell-Titer-Glo assay in presence of 5-epi-nakijinone; assay type: functional, cell-based
smiles,measurement,setting,value
C=C1CCC[C@H]2[C@](C)(Cc3c(O)c(OC)cc4nc(C)oc34)[C@@H](C)CC[C@@]12C,inhibition,HEK293 [1],Active
same,inhibition,HEK293 [2],Active
same,growth inhibition (GI),SW480 [3],Active
same,growth inhibition (GI),HCT-116 [4],Active
C=C1CCC[C@H]2[C@](C)(CC3=C(O)C(=O)C=C(OCC)C3=O)[C@@H](C)CC[C@@]12C,inhibition,HEK293 [5],Active
same,inhibition,HEK293 [6],Active
same,IC50,SW480 [7],3.24 µM
same,IC50,HCT-116 [8],2.95 µM
C=C1CCC[C@H]2[C@](C)(CC3=C4OC(C)(C)N=C4C=C(OC)C3=O)[C@@H](C)CC[C@]12C,inhibition,HEK293 [9],Active
same,inhibition,HEK293 [10],Active
same,growth inhibition (GI),SW480 [11],Active
same,growth inhibition (GI),HCT-116 [12],Active
